In one experiment the test system is ear edema model in mice. As to the kind of experiment: Ear edema model. In kind it is in vivo. Particulars: Mus musculus, Croton oil (CO) as inducer, IP. An excerpt:
(§1) Evaluation of the therapeutic effects of the novel PRS-211 compounds has now been carried out in a series of experimental systems to support the utility of these drugs as neuroprotectants, anti-inflammatory agents and anti-oxidative agents. These effects have been evaluated both in vitro and in vivo, and have been corroborated utilizing the following systems: • (a) Binding to the NMDA receptor linked channel: Non competitive antagonists of NMDA, the primary example of which is the compound MK-801, bind to a site within the NMDA receptor channel thus preventing the activation of the receptor-channel complex and the consequent neurotoxicity. The ability of various compounds to compete with the binding of tritium labeled MK-801 to brain membranes is considered a measure of their potency as NMDA non-competitive antagonists. • (b) Inhibition of prostaglandin production: The inhibitory effect of the new derivatives of Dexanabinol on prostaglandin synthesis is evaluated in macrophage cell cultures following LPS exposure to induce the inflammatory response. These assays are an indication of the anti-inflammatory activity of the individual analogs. • (c) Inhibition of Tumor Necrosis Factor Alpha: Specific aspects of the inflammatory response cascade are mediated by the cytokine TNFα. Inhibition of TNFα production and/or inhibition of TNFα release by the new analogs are assayed in macrophage cell cultures activated with LPS. This serves as another indication of the general anti-inflammatory potential of the novel compounds. • (d) Nitric Oxide Assay: As one aspect of the anti-oxidative potential of the novel analogs they were tested for their ability to inhibit the enzyme nitric oxide synthase (NOS). This assay can also serve as another indication of the anti-inflammatory cascade, as well as the anti-oxidative mechanisms. • (e) Ear Edema model: The anti-inflammatory activity of the new analogs is screened using an ear edema model in mice. This test system utilizes Croton oil or Arachidonic acid as inflammation inducers. The ability of the test compounds to prevent or diminish the inflammatory response to these stimulants is indicative of their systemic anti-inflammatory capability. • (f) Improved clinical outcome after closed head injury in rats: Severe head injury is associated with high mortality and severe neurological impairment. Animals subjected to head trauma in a controlled fashion serve as models in which to test drugs of therapeutic potential. Test compounds can be evaluated both for improved clinical outcome and for reduction of edema induced by closed head injury. The ability of compounds to reduce the severity of neurological symptoms and to reduce brain edema is considered a measure of their potency in reducing brain damage. • (g) Transient Middle cerebral artery occlusion (MCAo): The middle cerebral artery is the cerebral blood vessel most susceptible to stroke in humans. In animals, coagulation, permanent ligation or permanent placement of an occluding thread in the artery produces a permanent focal stroke affecting the MCA territory. Transient ligation or occlusion results in transient focal stroke. Both transient and permanent focal strokes result in varying degrees of edema and infarction in the affected brain regions. The ability of compounds to reduce the volumes of edema and infarction is considered a measure of their potential as anti-stroke treatment. • (h) Optic Nerve Crush: Application of mechanical pressure to the rat optical nerve results in crush injury of the axons, which is accompanied by immediate changes in oxidative metabolism and delayed axonal death and blindness. […]

For experiment [1], the system named is Nitric Oxide Synthase (NOS). As to the kind of experiment: Inhibition of nitric oxide synthase (nitrite fluorimetric assay, LPS-stimulated macrophage cultures). In kind it is cell-based. Conditions: LPS-stimulated macrophages.
Description: as §1

Experiment [2] deals with transient middle cerebral artery occlusion in rats. As to the kind of experiment: Transient middle cerebral artery occlusion (MCAo), infarct size evaluation. In kind it is in vivo. From the text: Experimental design. The design was a randomized one, performed in a masked fashion as to whether drug or vehicle was being given, and an attempt was made to generate approximately equal numbers of drug- and vehicle-treated animals.
• a. Male rats (8 /treatment group) 320-380 gr. (Harlan Israel). • b. Halothane (Rhone Poulenc France) • c. Pentobarbitone (Pental Veterinary, CTS Israel). • d. Poly - L - Lysine (Sigma, USA). • e. Silk suture material 3-0 and 4-0. • f. Nylon (Polyamid) suture material 3-0. Four cm pieces were cut and positioned in a solution of 1% Poly - L - Lysine for 1 minute and dried in an oven (60 ° C) for 60 minutes. The tip of each piece was rounded under a flame. • g. Saline (Teva Medical). • h. Blank cremophor ethanol cosolvent (Pharmos). • i. Dexanabinol in cremophor ethanol cosolvent 50 mg/ml. (Both Dexanabinol and its vehicle were diluted in saline prior to drug administration. • j. Analogs PRS-211,092, PRS-211,095, PRS-211,128 PRS-211,132 and PRS-211,220 in cremophor ethanol cosolvent, 50 mg/ml. • k. The analogs were diluted in saline prior to drug administration.
• a. Surgical details of the MCAo method used for testing dexanabinol analogs, are presented in Belayev, et al., (Belayev, Busto, Weizhao, and Ginsberg, Stroke 26:2313-2319, 1995) which is incorporated herein in its entirety by reference. • b. Two hours after the start of MCAO, the animals were reanesthetized with halothane, the neck wound was re-opened and the nylon thread pulled out of the Internal carotid artery (ICA). The skin wound was then closed with 3-0 silk suture material and the animals allowed to recover from the anesthesia. • c. Three sets of animals were tested. In the first test immediately (2+0 hours) before thread removal the animals were injected IV with either analogs PRS-211,095, PRS-211,128, PRS-211,132, or Dexanabinol (PRS-211,007) each at a dosage of 5 mg/kg. One group of animals was treated with 5ml/kg vehicle alone. In another group, the animals subjected to "sham" operation, the suture was passed into the ICA, as described above, but immediately withdrawn. In the second set dexanabinol, PRS-211,092, PRS-211,095 and PRS-211,220 were used, at 2+0 hours. In the third set dexanabinol, PRS-211,092, PRS-211,095 and PRS-211,220 were administered 1 hour after thread removal (2+1 hours). Laser Doppler Flow (LDF) determined the success of MCAo - a drop of more then 50% in cerebral blood flow was considered as a sign of successful MCAo. Although LDF was a helpful corroborative sign, clinical outcome remained the final inclusion/exclusion criterion, since, with the exception of the PRS-211,220 staircase study, LDF was introduced only after initiation of the study.
A detailed investigation of neurological performance was carried out on the first, third and the 7th day after the MCAo. Two parameters were examined: posture and the flexion reflex (based on Nokon and Chuang, NeuroReport 9, 1998: 2081-2084). Animals were scored according to their performance:
One week after the ischemic insult, animals were euthanized with pentobarbitone 100 mg/kg IP. The animals were perfused through the heart with heparinized 4% formaldehyde solution in PBS (pH 7.4). Brains were then removed, and kept in the same solution before preparation for histological evaluation of the brain infarct volume.

For another experiment, the system named is PGE2. As to the kind of experiment: Inhibition of prostaglandin synthesis (PGE2) in LPS-stimulated macrophage cell cultures. Conditions: LPS-stimulated macrophages. In kind it is cell-based.
Description: as §1

In the next experiment the target is NMDA receptor. As to the kind of experiment: Radioligand binding: displacement of [3H]MK-801 from rat forebrain membranes.
Description: as §1
Background: Loss of bound radioactivity is the signal in a displacement assay; it reports binding, not function.

The test system of another experiment is TNFα. Put plainly: Inhibition of TNFα in LPS-stimulated macrophage cell cultures (ELISA). Particulars: LPS-stimulated macrophages. In kind it is cell-based.
Description: as §1

Where [3] appears, read: displacement of [3H]MK-801, rat forebrain membranes, read-out: NMDA BINDING IC50.

Where two headings read alike, the source gives them in different places.

A word on the ED50: it is the midpoint of the dose-response relation. Lower therefore signals greater potency. The inhibition is the percentage by which the read-out fell short of the control. The low end stands for a response near the control, the high end for a response far below the control. A word on the IC50: it is the concentration that gives 50% inhibition. In turn, `CCCCCCC(C)(C)c1cc(O)c2c(c1)OC(C)(C)[C@H]1CC=C(CN3CCOCC3)C[C@H]21` [211,132-000] returned an ED50 in the experiment on ear edema model in mice of 70 µmol/kg. The inhibition at 10 µM in experiment [1] stood at 40%; with PGE2 it was 61%; in the experiment on TNFα, 21%. In addition, the Mortality rate result in experiment [2] (5 mg/kg IV at 2+0 hours) is “around 25%”. Besides, the 50% inhibitory concentration (IC50) at NMDA receptor ([3H]MK-801 binding, text to Figure 2, read-out: mean IC50) is 4.5 µM; on NMDA receptor (setting [3]), 4.5 µM.
As for `CCCCCCC(C)(C)c1cc(O)c2c(c1)OC(C)(C)[C@H]1CC=C(CN3CCN=C3SC)C[C@H]21` [211,204-000], the ED50 with ear edema model in mice was 34 µmol/kg. Besides, the values for the inhibition at 10 µM (in experiment [1]; in the experiment with PGE2; with TNFα) were 85%, 83% and 28%, respectively. For the same compound, the “reduction of infarct size” value in experiment [2] (IV, one week after the ischemic insult) amounted to 50%. The half-inhibitory concentration (IC50) on NMDA receptor (setting [3]) amounted to 10 µM.

The record behind these values is patent EP1785417A2, “Novel non-psychotropic cannabinoids” (priority 2000, dated 2001).
